# Measurements taken from ChEMBL document CHEMBL1201862, “PubChem BioAssay data set” (2004).
#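 Method: 48-hour compound exposure of cells in 96-well plates, five concentrations, linear interpolation of endpoints. GI50 = concentration required for 50% inhibition of growth.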 Activity calls are given as the source filed them. No stated cut-off is given here; in the data, active = GI50 up to about 1.1 µM and inactive = higher.
# Tests used:
# Experiment in all cases: NCI tumour cell line growth inhibition, 48 h
# COLO 205 = test system: COLO 205
# HCC 2998 = test system: HCC 2998
# M14 = test system: M14
# A549 = test system: A549
# CCRF-CEM = test system: CCRF-CEM
# OVCAR-8 = test system: OVCAR-8
# CAKI-1 = test system: CAKI-1
# SK-MEL-5 = test system: SK-MEL-5
# HOP-92 = test system: HOP-92
# NCI-H23 = test system: NCI-H23
# DU-145 = test system: DU-145
# HCT-15 = test system: HCT-15
# SF-539 = test system: SF-539
# RPMI-8226 = test system: RPMI-8226
# T47D = test system: T47D
# HL-60 = test system: HL-60
# SN12C = test system: SN12C
# SK-OV-3 = test system: SK-OV-3
# U-251 = test system: U-251
# 786-0 = test system: 786-0
# HOP-62 = test system: HOP-62
# SNB-75 = test system: SNB-75
# UACC-62 = test system: UACC-62
# UO-31 = test system: UO-31
# A498 = test system: A498
# SR = test system: SR
# NCI/ADR-RES = test system: NCI/ADR-RES
# SW-620 = test system: SW-620
# IGROV-1 = test system: IGROV-1
# OVCAR-3 = test system: OVCAR-3
# PC-3 = test system: PC-3
# KM12 = test system: KM12
# Malme-3M = test system: Malme-3M
# K562 = test system: K562
# MOLT-4 = test system: MOLT-4
# MDA-MB-231 = test system: MDA-MB-231
# LOX IMVI = test system: LOX IMVI
# EKVX = test system: EKVX
# BT-549 = test system: BT-549
# MDA-N = test system: MDA-N
# NCI-H522 = test system: NCI-H522
# SNB-19 = test system: SNB-19
# SF-268 = test system: SF-268
# OVCAR-4 = test system: OVCAR-4
# HCT-116 = test system: HCT-116
# ACHN = test system: ACHN
# HT-29 = test system: HT-29
# NCI-H460 = test system: NCI-H460
# Hs-578T = test system: Hs-578T
# RXF 393 = test system: RXF 393
# TK-10 = test system: TK-10
# MDA-MB-435 = test system: MDA-MB-435
# SK-MEL-2 = test system: SK-MEL-2
# SK-MEL-28 = test system: SK-MEL-28
# SF-295 = test system: SF-295
# NCI-H226 = test system: NCI-H226
# UACC-257 = test system: UACC-257
# MCF7 = test system: MCF7
# OVCAR-5 = test system: OVCAR-5
compound,measurement,setting,value
CC(=O)NC(CS)C(=O)O (configuration not stated),GI50,COLO 205,14600 µM (inactive)
same,GI50,HCC 2998,20700 µM (inactive)
same,GI50,M14,7360 µM (inactive)
same,GI50,A549,15700 µM (inactive)
same,GI50,CCRF-CEM,> 100 µM (inactive)
same,GI50,OVCAR-8,24700 µM (inactive)
same,GI50,CAKI-1,6.03 mM (inactive)
same,GI50,SK-MEL-5,14500 µM (inactive)
same,GI50,HOP-92,12500 µM (inactive)
same,GI50,NCI-H23,20.2 mM (inactive)
same,GI50,DU-145,21.4 mM (inactive)
same,GI50,HCT-15,12900 µM
same,GI50,SF-539,26100 µM (inactive)
same,GI50,RPMI-8226,746 µM (inactive)
same,GI50,T47D,26900 µM (inactive)
same,GI50,HL-60,34200 µM (inactive)
same,GI50,SN12C,26300 µM (inactive)
same,GI50,SK-OV-3,44200 µM (inactive)
same,GI50,U-251,19300 µM (inactive)
same,GI50,786-0,21600 µM (inactive)
same,GI50,HOP-62,12800 µM (inactive)
same,GI50,SNB-75,10700 µM (inactive)
same,GI50,UACC-62,27300 µM (inactive)
same,GI50,UO-31,7640 µM (inactive)
same,GI50,A498,3970 µM (inactive)
same,GI50,SR,44100 µM (inactive)
same,GI50,NCI/ADR-RES,22600 µM (inactive)
same,GI50,SW-620,11000 µM (inactive)
same,GI50,IGROV-1,2610 µM (inactive)
same,GI50,OVCAR-3,16800 µM (inactive)
same,GI50,PC-3,33200 µM (inactive)
same,GI50,KM12,33300 µM (inactive)
same,GI50,Malme-3M,8220 µM (inactive)
same,GI50,K562,21700 µM (inactive)
same,GI50,MOLT-4,16400 µM (inactive)
same,GI50,MDA-MB-231,11300 µM (inactive)
same,GI50,LOX IMVI,> 100 µM (inactive)
same,GI50,EKVX,4670 µM (inactive)
same,GI50,BT-549,> 100 µM (inactive)
same,GI50,MDA-N,> 100 µM (inactive)
same,GI50,NCI-H522,6500 µM (inactive)
same,GI50,SNB-19,16400 µM (inactive)
same,GI50,SF-268,20900 µM (inactive)
same,GI50,OVCAR-4,50900 µM (inactive)
same,GI50,HCT-116,17600 µM (inactive)
same,GI50,ACHN,16.6 mM (inactive)
same,GI50,HT-29,14700 µM (inactive)
same,GI50,NCI-H460,18400 µM (inactive)
same,GI50,Hs-578T,18700 µM (inactive)
same,GI50,RXF 393,21900 µM (inactive)
same,GI50,TK-10,10000 µM (inactive)
same,GI50,MDA-MB-435,17800 µM (inactive)
same,GI50,SK-MEL-2,18500 µM (inactive)
same,GI50,SK-MEL-28,19900 µM (inactive)
same,GI50,SF-295,14600 µM (inactive)
same,GI50,NCI-H226,10500 µM (inactive)
same,GI50,UACC-257,21400 µM (inactive)
same,GI50,MCF7,25200 µM (inactive)
same,GI50,OVCAR-5,14500 µM (inactive)
COC(=O)c1cc2cc3c(c(O)c2c(=O)o1)O[C@@]1(Oc2c(O)c4c(c(O)c2[C@H]1OC1CC(OC)C(O)C(C)O1)C(=O)C=C(OC)C4=O)[C@H](O)C3 (some centres not stated),GI50,COLO 205,1.51 µM (inactive)
same,GI50,HCC 2998,1.2 µM (inactive)
same,GI50,M14,1.17 µM (inactive)
same,GI50,A549,1.05 µM (active)
same,GI50,CCRF-CEM,0.889 µM (active)
same,GI50,OVCAR-8,1.06 µM (active)
same,GI50,CAKI-1,0.000448 mM (active)
same,GI50,SK-MEL-5,0.966 µM (active)
same,GI50,HOP-92,2.41 µM (inactive)
same,GI50,NCI-H23,0.00094 mM (active)
same,GI50,DU-145,0.000822 mM (active)
same,GI50,HCT-15,0.908 µM
same,GI50,SF-539,0.908 µM (active)
same,GI50,RPMI-8226,0.547 µM (active)
same,GI50,T47D,1.5 µM (inactive)
same,GI50,HL-60,0.719 µM (active)
same,GI50,SN12C,1.3 µM (inactive)
same,GI50,SK-OV-3,1.85 µM (inactive)
same,GI50,U-251,0.785 µM (active)
same,GI50,786-0,0.991 µM (active)
same,GI50,HOP-62,1.14 µM (inactive)
same,GI50,SNB-75,0.652 µM (active)
same,GI50,UACC-62,0.55 µM (active)
same,GI50,UO-31,1.37 µM (inactive)
same,GI50,A498,0.789 µM (active)
same,GI50,SR,0.458 µM (active)
same,GI50,NCI/ADR-RES,4.62 µM (inactive)
same,GI50,SW-620,1.07 µM (active)
same,GI50,IGROV-1,0.705 µM (active)
same,GI50,OVCAR-3,1.45 µM (inactive)
same,GI50,PC-3,1.36 µM (inactive)
same,GI50,KM12,0.904 µM (active)
same,GI50,Malme-3M,1.28 µM (inactive)
same,GI50,K562,0.841 µM (active)
same,GI50,MOLT-4,0.748 µM (active)
same,GI50,MDA-MB-231,1.27 µM (inactive)
same,GI50,LOX IMVI,0.492 µM (active)
same,GI50,EKVX,1.74 µM (inactive)
same,GI50,BT-549,1.3 µM (inactive)
same,GI50,MDA-N,1.22 µM (inactive)
same,GI50,NCI-H522,2.09 µM (inactive)
same,GI50,SNB-19,1 µM (active)
same,GI50,SF-268,0.986 µM (active)
same,GI50,OVCAR-4,0.604 µM (active)
same,GI50,HCT-116,0.735 µM (active)
same,GI50,ACHN,0.000855 mM (active)
same,GI50,HT-29,1.14 µM (inactive)
same,GI50,NCI-H460,0.685 µM (active)
same,GI50,Hs-578T,1.17 µM (inactive)
same,GI50,RXF 393,0.726 µM (active)
same,GI50,TK-10,2.07 µM (inactive)
same,GI50,MDA-MB-435,1.09 µM (active)
same,GI50,SK-MEL-2,1.53 µM (inactive)
same,GI50,SK-MEL-28,0.659 µM (active)
same,GI50,SF-295,0.724 µM (active)
same,GI50,NCI-H226,1.32 µM (inactive)
same,GI50,UACC-257,2 µM (inactive)
same,GI50,MCF7,1.14 µM (inactive)
same,GI50,OVCAR-5,1.84 µM (inactive)
NCCCCNC1(c2cc3ccccc3s2)CCCCC1,GI50,COLO 205,1.74 µM (inactive)
same,GI50,HCC 2998,1.65 µM (inactive)
same,GI50,M14,1.98 µM (inactive)
same,GI50,A549,5.96 µM (inactive)
same,GI50,CCRF-CEM,1.69 µM (inactive)
same,GI50,OVCAR-8,7.06 µM (inactive)
same,GI50,CAKI-1,0.0148 mM (inactive)
same,GI50,SK-MEL-5,1.74 µM (inactive)
same,GI50,HOP-92,5.32 µM (inactive)
same,GI50,NCI-H23,0.0142 mM (inactive)
same,GI50,DU-145,0.0111 mM (inactive)
same,GI50,HCT-15,4.54 µM
same,GI50,SF-539,1.95 µM (inactive)
same,GI50,RPMI-8226,1.84 µM (inactive)
same,GI50,T47D,2.29 µM (inactive)
same,GI50,HL-60,3.09 µM (inactive)
same,GI50,SN12C,12.2 µM (inactive)
same,GI50,SK-OV-3,14.5 µM (inactive)
same,GI50,U-251,2.34 µM (inactive)
same,GI50,786-0,1.55 µM (inactive)
same,GI50,HOP-62,6.03 µM (inactive)
same,GI50,SNB-75,3.27 µM (inactive)
same,GI50,UACC-62,1.91 µM (inactive)
same,GI50,UO-31,2.56 µM (inactive)
same,GI50,A498,2.16 µM (inactive)
same,GI50,SR,1.49 µM (inactive)
same,GI50,NCI/ADR-RES,6.9 µM (inactive)
same,GI50,SW-620,3.54 µM (inactive)
same,GI50,IGROV-1,3.08 µM (inactive)
same,GI50,OVCAR-3,2.78 µM (inactive)
same,GI50,PC-3,4.9 µM (inactive)
same,GI50,KM12,3.2 µM (inactive)
same,GI50,Malme-3M,1.88 µM (inactive)
same,GI50,K562,1.59 µM (inactive)
same,GI50,MOLT-4,2.07 µM (inactive)
same,GI50,MDA-MB-231,3.22 µM (inactive)
same,GI50,LOX IMVI,1.71 µM (inactive)
same,GI50,EKVX,14.6 µM (inactive)
same,GI50,BT-549,11.8 µM (inactive)
same,GI50,MDA-N,1.71 µM (inactive)
same,GI50,NCI-H522,2.42 µM (inactive)
same,GI50,SNB-19,7.45 µM (inactive)
same,GI50,SF-268,6.24 µM (inactive)
same,GI50,OVCAR-4,6.76 µM (inactive)
same,GI50,HCT-116,3.65 µM (inactive)
same,GI50,ACHN,0.0111 mM (inactive)
same,GI50,HT-29,2.42 µM (inactive)
same,GI50,NCI-H460,2.62 µM (inactive)
same,GI50,Hs-578T,4.51 µM (inactive)
same,GI50,RXF 393,3.07 µM (inactive)
same,GI50,TK-10,3.87 µM (inactive)
same,GI50,MDA-MB-435,1.82 µM (inactive)
same,GI50,SK-MEL-2,1.88 µM (inactive)
same,GI50,SK-MEL-28,1.83 µM (inactive)
same,GI50,SF-295,2.84 µM (inactive)
same,GI50,NCI-H226,16.5 µM (inactive)
same,GI50,UACC-257,1.84 µM (inactive)
same,GI50,MCF7,2.88 µM (inactive)
same,GI50,OVCAR-5,3.77 µM (inactive)
